Reference: patent EP0652217A1, “N-substituted imidazole derivatives” (MITSUBISHI CHEMICAL CORPORATION, priority 1993, dated 1995)

Experiments:
Format in all cases: in vivo
[1] = test system: Spontaneously hypertensive rats (SHR); experiment: Antihypertensive activity: blood pressure lowering in SHR; settings: oral, suspended in 1.0 % Tween 80
Procedure: Spontaneously hypertensive rats (SHR) were anesthetized with ether and polyethylene catheter for measurement of blood pressure was inserted in ventral aortas via caudal artery on the day before these experiments, and placed in separate cages and their tails were fixed. Under aparalytic conditions, blood pressure of semi-restrained rats was measured using a pressure transducer (TP-400T, manufactured by Nippon Koden). Heart rate was determined from pulse wave measured by a cardiotachometer (AT0691G, manufactured by Nippon Koden). On the test day, the test compounds were administered to rats after blood pressure and heart rate were confirmed to become sufficiently stable.
The test compounds were suspended in Tween 80 (1.0 % solution, 10 ml/kg) and orally administered to SHRs.

golden syrian hamsters = experiment: Anti-hyperlipemic activity: inhibition of serum total cholesterol increase in cholesterol-fed hamsters; settings: hamsters on feed with 1 % cholesterol and 0.5 % cholic acid
Procedure: Six-week old golden syrian hamsters (4 to 5 animals/group) were used.
Untreated control group received normal solid feed (MF, Oriental Kobo Kogyo), while control and a drug-treated groups received feed containing 1 % cholesterol and 0.5 % cholic acid (manufactured by Oriental Kobo Kogyo) to induce […].
The test compound was suspended in 1.0 % Tween 80. The solvent or the test compound was started to be orally administered (10 ml/kg, once a day, for 5 days) as soon as feed was changed to cholesterol-containing feed. Alter final administration, blood was drawn from abdominal descendens main vein while anesthetized with nembutal. Serum was collected and total cholesterol (TC) in serum was determined according to enzymatic method using assay kit (Kyowa Medics).

KK-A^v mice = experiment: Activity to lower blood sugar (hypoglycaemic activity) in KK-A^v mice; settings: serum
Procedure: Ten-week old KK-A^v mice (4 - 6 animals/group) were used.
The solvent (1 % Tween 80 solution) or a suspension of the test compound was orally administered once a day for 11 days (10 ml/kg).
Before administration and after the final administration, blood was drawn from caudal vein, and serum was collected and blood sugar level in serum was determined.
There was no difference between blood sugar levels before and after administration for control group. The test compound provided statistically significant decrease in blood sugar level for KK-A^v mice compared with the value before administration. The change in weight of test compound-treated group during oral administration was almost same as that of the control group.

[2] = oral 30 mg/kg once a day for 5 days
[3] = oral 100 mg/kg once a day for 5 days

SMILES | Maximum fall in blood pressure ([1]; dose 10 mg/kg) [mmHg] | Inhibition of TC increase (golden syrian hamsters; [2]) [%] | Inhibition of TC increase (golden syrian hamsters; [3]) [%] | also measured
c1cc(OCCCCn2ccnc2)c2c(c1)OCO2 [Compound 7, 4-[4-(1-imidazolyl)butoxy]-1,3-benzodioxole] | -60 | 38 | – | –
c1cc(OCCCn2cnc3ccccc32)c2c(c1)OCO2 [Compound 6, 4-[3-(1-benzimidazolyl)propoxy]-1,3-benzodioxole] | -20 | – | – | –
c1cc(OCCCCCn2ccnc2)c2c(c1)OCO2 [Compound 8, 4-[5-(1-imidazolyl)pentoxy]-1,3-benzodioxole] | -25 | – | – | –
O=C(NCCCn1ccnc1)c1ccc2c(c1)OCCO2 [Compound 16, N-[3-(1-imidazolyl)propyl]-1,4-benzodioxane-6-carboxamide] | – | – | 79 | Maximum fall in blood pressure ([1]; dose 30 mg/kg): -34.3 mmHg
O=C(NCCCn1ccnc1)c1ccc2c(c1)OCO2 [Compound 13, N-[3-(1-imidazolyl)propyl]-3,4-methylenedioxybenzamide] | – | 26 | 60 | –
c1cc(OCCCn2ccnc2)c2c(c1)OCO2 [Compound 1, 4-[3-(1-imidazolyl)propoxy]-1,3-benzodioxole] | – | 80 | 100 | Blood sugar level, After administration (KK-A^v mice; after oral 30 mg/kg once a day for 11 days, P < 0.05 vs value before administration): 532.2 ± 23.9; Blood sugar level, Before administration (KK-A^v mice; baseline before administration, 30 mg/kg group): 676.4 ± 33.7
N#Cc1ncn(CCCOc2cccc3c2OCO3)c1C#N [Compound 4, 4-[3-(4,5-dicyano-1-imidazolyl)propoxy]-1,3-benzodioxole] | -20 | – | – | –
Clc1ncn(CCCOc2cccc3c2OCO3)c1Cl [Compound 5, 4-[3-(4,5-dichloro-1-imidazolyl)propoxy]-1,3-benzodioxole] | -20 | – | – | –
